From article PMC11788964, “Clinical Pharmacology and Approach to Dose Selection of Emestedastat, a Novel Tissue Cortisol Synthesis Inhibitor for the Treatment of Central Nervous System Disease” (Clinical Pharmacology in Drug Development, 2025)

What was measured:
[1] = tested on: healthy older men; patients with type 2 diabetes mellitus; parameters: method as in PMID 15071189; details: cited from earlier work
[2] = parameters: method as in PMID 28012176; details: cited from earlier work
[3] = Population pharmacokinetic (PPK) analysis of MAD, XanADu and XanaHES trials; assay type: in vivo, human
Protocol: PPK analysis was performed on data from 3 trials: the MAD trial in volunteers; the XanADu trial in patients with AD; and XanaHES in older, cognitively normal participants. In total, 138 participants (18 healthy volunteers, 90 patients with AD, and 30 healthy older participants) contributed a total of 1087 evaluable plasma concentration observations.
The analyses were performed using NONMEM Version 7.3.0 (ICON plc). PK parameter relationships were sought with the covariates body weight, age, sex, and healthy versus AD. The selected PPK model was a one‐compartment model with first‐order absorption and elimination. It was successfully fitted using Monte Carlo Importance Sampling Expectation Maximization estimation and included separate relative bioavailability terms for the Day 1 PK data from the XanADu and XanaHES trials. The M3 method was used to permit the inclusion of the below‐the‐limit quantification concentrations in the analysis. The model estimated between‐subject variation in all 4 parameters and used a full ω block to estimate the covariance between parameters. The model included a weight effect on the apparent volume of distribution.

11β‐HSD1 = tested on: 11β‐HSD1; parameters: method as in PMID 38250767; details: 5 mg; cited from earlier work
[4] = tested on: cognitively normal, older participants; experiment: XanaHES (ACW0003) computerized cognitive test battery (Cogstate); assay type: in vivo, human; details: 20 mg daily, over 12 weeks
Protocol: The next trial, XanaHES (ACW0003) was a double‐blind, placebo‐controlled, Phase 1b trial in cognitively normal, older participants (age range, 50‐75 years) at a dose of 20 mg daily for 12 weeks. The population of 42 participants comprised 30 receiving emestedastat and 12 receiving placebo. The objectives were to assess safety, PK, HPA PD, and cognition. The computerized cognitive test battery (CTB; Cogstate) assessed attention, working memory, and episodic memory.
(§1) In both XanaHES and XanaMIA‐DR, cognition was assessed using a computerized CTB (Cogstate). The CTB comprised tests indexing key domains of cognition including processing speed, attention, visual learning, working memory, psychomotor function, and executive function. In XanaHES, least squares mean differences between the emestedastat 20 mg treatment group and the placebo group were estimated and tested at a 2‐sided 0.05 significance level. No adjustments for α were made for multiple comparisons. In XanaMIA‐DR, standardized effect sizes, equivalent to a Z score, were calculated with a threshold for clinically meaningful effect set at 0.9, representing a 1‐sided 80% confidence interval (CI).
(§2) The individual tests from the Cogstate battery were combined into 2 composite scores indexing: • · “Attention Composite” of attention and working memory (Detection Test, Identification Test, One Back Test) • · “Memory Composite” of episodic memory and learning (One Card Learning Test, Continuous Paired Associate Learning Test, and Continuous Paired Associate Learning Test‐Delayed Recall).
(§3) To compute the Attention and Memory Composite scores, each of the component‐test scores were Z transformed, the directionality of scores was reversed so that higher scores indicate better performance, and the component Z scores were averaged.

peripheral 11β‐HSD1 = tested on: peripheral 11β‐HSD1; parameters: method as in PMID 28012176; details: all doses in the MAD trial (10 to 35 mg twice daily); cited from earlier work
[5] = Safety and tolerability in clinical trials; assay type: in vivo, human
Source text: All trials were approved by a local ethics committee/institutional review board, and all participants gave written informed consent. Endocrinology data and a population PK (PPK) analysis are available from the following trials: • · A single‐ascending‐dose (SAD) trial in healthy volunteers (RD 656/25368)[25] • · A multiple‐ascending‐dose (MAD) trial in healthy volunteers, including a small subtrial measuring CSF concentrations (ACW0001)[25] • · A positron emission tomography (PET) trial in cognitively normal, older volunteers and patients with AD (ACW0004)[26] • · Two trials in cognitively normal, older volunteers examining safety and effects on cognition (Trials ACW0003, NCT03830762 and ACW0005; and NCT04983368) • · A PPK analysis from the healthy volunteer and patient trials • · HPA axis endocrinology data from the volunteer and patient trials • · A trial of efficacy and safety in patients with AD (ACW0002; NCT02727699)[27]
Initially, the SAD and MAD trials studied doses up to 35 mg twice daily and assessed PK and HPA PD.

[6] = SAD and MAD trials of up to 35 mg twice daily; cited from earlier work
patients with AD = tested on: patients with AD; parameters: method as in PMID 34679364; details: 10 mg daily 12 weeks, elevated plasma pTau181; cited from earlier work
[7] = tested on: healthy older participants; experiment: XanaMIA‐DR (ACW0005) computerized cognitive test battery (Cogstate); assay type: in vivo, human
Protocol: XanaMIA‐DR (ACW0005) was a double‐blind placebo‐controlled Phase 1b trial in 107 healthy older participants (age range, 50‐80 years) at doses of 5 and 10 mg daily for 6 weeks. The principal objective of XanaMIA‐DR was to assess whether the improvements in cognition observed in XanaHES were also present at the lower doses of 5 and 10 mg daily.
as §1, §2, §3

AD population = tested on: AD population; parameters: method as in PMID 24418055; details: 12‐week Phase 2 trial in AD; cited from earlier work
[8] = tested on: mice with age‐associated cognitive impairment; murine Tg2576 model of AD; details: aged mice and murine Tg2576 model of AD; cited from earlier work
brain 11β‐HSD1 = details: aged mice and murine Tg2576 model of AD; cited from earlier work

CC1(C)[C@@H](OC(=O)CCC(=O)O)CC[C@]2(C)[C@H]3C(=O)C=C4[C@@H]5C[C@@](C)(C(=O)O)CC[C@]5(C)CC[C@@]4(C)[C@]3(C)CC[C@@H]12 [carbenoxolone]
verbal fluency test (executive function) ([1]; 10 healthy older (55‐75 years) men, 4 weeks): improved
verbal memory in the Rey Auditory Verbal Learning Test ([1]; 12 patients with type 2 diabetes mellitus): improved verbal memory

O=C(c1csc(-c2cn[nH]c2)c1)N1C2CCC1CC(O)(c1ncccn1)C2 (stereo not drawn) [emestedastat, (5‐(1H‐Pyrazol‐4‐yl)thiophen‐3‐yl)(3‐hydroxy‐3‐(pyrimidin‐2‐yl)‐8 azabicyclo[3.2.1]octan‐8‐yl) methanone]
CSF : free plasma ratio ([2]; 4 participants, single time point): 0.33
urinary excretion of unchanged drug ([2]; SAD and MAD trials): < 5%
linearity of PK ([3]; dose range 10‐70 mg): linear
ALAG (absorption lag time), estimate ([3]; final PPK model): 0.900 h
ka (absorption rate), estimate ([3]; final PPK model): 1.74 h⁻¹
CL/F (apparent clearance), estimate ([3]; final PPK model, 138 participants): 4.76 L/h
WT on V/F (covariate), estimate ([3]; final PPK model, weight effect on V/F): 1.00
Vd/F ([3]; human, plasma, oral, final PPK model, read-out: V/F (apparent volume of distribution), estimate): 64.3 L
half-life ([3]; human, plasma, oral, from kel = CL/V and t1/2 = ln(2)/Kel, read-out: mean elimination half‐life (95% CI)): 9.36 h
occupancy in the cerebellum relative to cortex (11β‐HSD1): lower (by about half)
One Card Learning Test, Continuous Paired Associate Learning Test and Delayed Recall, vs placebo [4]: no difference between groups
least squares mean difference on the One Back Test compared to placebo [4]: −0.06 U
least squares mean difference on the detection test compared to placebo [4]: −0.04 U
least squares mean difference on the identification test compared to placebo [4]: −0.03 U
Cohen's d, One Back Test ([4]; vs placebo): 0.98
Cohen's d, detection test ([4]; vs placebo): 0.49
Cohen's d, identification test ([4]; vs placebo): 0.65
inhibition of peripheral 11β‐HSD1 (suppression of urinary tetrahydrocortisol/tetrahydrocortisone ratios) (peripheral 11β‐HSD1): Near complete inhibition
maximum tolerated dose in humans ([5]; all trials): has not been established
serious adverse events attributed to drug ([5]; any trial): no serious adverse events
maximum tolerated dose [6]: had not been established
tolerability [6]: well tolerated
Cohen's d, AD COMposite Scores (patients with AD): < 0.2
Cohen's d, ADAS‐Cog14 (patients with AD): < 0.2
Cohen's d, Clinical Dementia Ratio—Sum of Boxes compared to placebo (patients with AD): 0.41
Cohen's d, Mini‐Mental State Examination (patients with AD): < 0.2
Cohen's d, Neuropsychological Test Battery‐Executive domain (patients with AD): 0.26
treatment effect in the tests making up the Memory Composite ([7]; 5 and 10 mg daily, 6 weeks): no evidence of any treatment effect
improvement on the identification test (visual attention) compared to placebo ([7]; 5‐mg treatment group, 6 weeks): −0.018 U
Cohen's d, identification test ([7]; 5‐mg treatment group, vs placebo): 0.32

CC(C)(C(=O)NC1C2CC3CC1CC(C(N)=O)(C3)C2)N1CCN(c2ccc(C(F)(F)F)cn2)CC1 (stereo not drawn) [ABT‐384]
therapeutic outcome in AD (AD population): therapeutic failure

O=C(c1csc(-c2cn[nH]c2)c1)N1CCC(F)(c2ccccc2Cl)CC1 [UE2316]
amyloid‐β in the cortex [8]: reduction in amyloid‐β in the cortex
memory [8]: improved memory
inhibition of 11β‐HSD1 in the brain (brain 11β‐HSD1): approximately 30%
